Where “and” joins values, the source holds several entries; their conditions need not be identical. Equal entries are not always repeated.
Legend:
[1] = RP-HPLC for related substances of zidovudine (Ph. Eur. 9.5) after lyophilisation; assay type: physicochemical; details: aqueous lyo solution
Description: RP-HPLC chromatography for quantity and purity of zidovudine was performed according to monograph Ph. Eur. 9.5 (January 2017:1059). The following chromatographic conditions were used for the analysis.
• XTerra RP18 VanGuard cartridge, 3.9×5 mm, 5 μm Mobile phase A 2 g/L ammonium acetate, pH 6.8 Mobile phase B Acetonitrile
Mobile phase A was prepared by dissolving 2 g ammonium acetate in 800 mL of purified water, pH was adjusted to 6.8 with acetic acid. The solution was made up to 1 L with purified water.
Diluent was prepared by mixing 76 mL mobile phase A with 4 mL of ACN and 20 mL methanol.
Reference solution A: 2 mg of impurity C and 2 mg of impurity B were dissolved in 50 mL diluent. 1 mL of this solution was diluted with 19 mL diluent.

[2] = buffered aqueous system
Description: A two component buffer system consisting of acetate and phosphate (5 mM acetate and 5 mM phosphate) was used to cover a pH range of about 4.5 to 7.5. After complete dissolution of the solid, the pH was adjusted to the desired pH value using hydrochloric acid.

[3] = Solubility screening in organic solvent system (tert-butanol/water)
Description: Substances were dissolved in an appropriate volume to justify the use of an organic solvent based system (reduction of the fill volume per vial by a factor of 4, ˜5 mL fill volume in organic solvent based systems). Samples were tested for stability of the APIs in solution when stored for 24 h at 2 to 8° C. and 25° C. […] The chromatographic conditions were the same as set out above for Example 1A.

[4] = Determination of free colistin (turbidity) according to European Pharmacopeia 9.5; assay type: physicochemical; details: free colistin assay
Description: Determination of free colistin was performed according to European Pharmacopeia 9.5 (July 2017:0319).
1.0 g of hydrazine sulfate was dissolved in purified water, diluted to 100.0 mL with the same solvent and allowed to stand for 4-6 h.
2.5 g of hexamethylene tetramine was dissolved in 25.0 mL purified water in a 100 mL glass-stoppered volumetric flask.
25.0 mL hydrazine sulfate solution was added to the hexamethylene tetramine solution in the volumetric flask, mixed and allowed to stand for 24 h.
15.0 mL of the primary opalescent suspension was diluted to 1000.0 mL with purified water. This suspension was freshly prepared and stored for a maximum of 24 h.
Reference suspensions according to Table 6 were prepared for calibration of the turbidity meter.
One lyophilisate containing 240 mg CMS was dissolved in 10 mL purified water. CMS BDS was analyzed by dissolving 80 mg of CMS BDS in 3 mL purified water. After complete dissolution, 0.1 mL […] silicotungstic acid was added to 3 mL of the test sample (either reconstituted lyophilisate or dissolved BDS). The turbidity of the sample was recorded after 10 s-20 s.
Determination of free colistin was performed according to European Pharmacopeia 9.5 (July 2017:0319). The hydrazine sulfate solution, hexamethylene tetramine solution, primary opalescent suspension, standard of opalescence, and reference suspensions were prepared as in Example 2. […]

[5] = system: sensitive micro-organisms; details: cited from earlier work; for Potency: general value of the art
[6] = aqueous solutions; Wallace et al. 2010; cited from earlier work

## Cc1cn([C@H]2C[C@H](N=[N+]=[N-])[C@@H](CO)O2)c(=O)[nH]c1=O [Zidovudine]
[1]
  Stability of zidovudine during the lyophilisation process: stable during the lyophilisation process

## colistimethate sodium [CMS]
[2]
  Effect on pH of the solution / buffer capacity: strong buffer capacity at neutral to slightly basic pH values
[3]
  Solubility in TBA/water, all TBA concentrations: soluble in all TBA concentrations
[3]; 20% to 60% (w/w) TBA, 5 mL
  Dissolution time in TBA/water: within a few minutes
[4]; Table 8 (Example 2)
  Acceptance criteria/not more turbid than standard of opalescence II: yes
[4]; Table 8, organic solvent system lyophilisation (Example 2)
  Turbidity: 5.5 NTU
[5]
  Potency: around 12,500 IU/mg
[6]
  Concentration in aqueous solution above which CMS is stable against hydrolysis due to the formation of micelles: above 3.5 mM and ~5.7 mg/mL

## colistin sulfate
[5]
  Potency: around 20,500 IU/mg

## polymyxin B
[5]; generally accepted in the art
  International Units equivalent to 1 mg: approximately 10,000 IU

From patent publication US12594319B2, “Pharmaceutical development” (HELPERBY THERAPEUTICS LIMITED, priority 2019, dated 2026)
